Experimental data as given in patent US20220306653A1, “MACROCYCLIC INHIBITORS OF MCL-1” (Janssen Pharmaceutica NV, priority 2019, published 2022).

System: MOLP-8 human multiple myeloma cell line
Test: MOLP8 Caspase-Glo 3/7 luminescent assay
Type: cell-based
Settings: 2 hours incubation; averaged values over all runs on all batches
Excerpt: MCL-1 is a regulator of apoptosis and is highly over-expressed in tumor cells that escape cell death. The assay evaluates the cellular potency of small-molecule compounds targeting regulators of the apoptosis pathway, primarily MCL-1, Bfl-1, Bcl-2, and other proteins of the Bcl-2 family. Protein-protein inhibitors disrupting the interaction of anti-apoptotic regulators with BH3-domain proteins initiate apoptosis.
The Caspase-Glo® 3/7 Assay is a luminescent assay that measures caspase-3 and -7 activities in purified enzyme preparations or cultures of adherent or suspension cells. The assay provides a proluminescent caspase-3/7 substrate, which contains the tetrapeptide sequence DEVD. This substrate is cleaved to release aminoluciferin, a substrate of luciferase used in the production of light. Addition of the single Caspase-Glo® 3/7 Reagent in an “add-mix-measure” format results in cell lysis, followed by caspase cleavage of the substrate and generation of a “glow-type” luminescent signal.
This assay uses the MOLP-8 human multiple myeloma cell line, which is sensitive to MCL-1 inhibition.
Cell cultures were maintained between 0.2 and 2.0×10^6 cells/mL. The cells were harvested by collection in 50 mL conical tubes. The cells were then pelleted at 500 g for 5 mins before removing supernatant and resuspension in fresh pre-warmed culture medium. The cells were counted and diluted as needed.
The assay reagent was prepared by transferring the buffer solution to the substrate vial and mixing. The solution may be stored for up to 1 week at 4° C. with negligible loss of signal.
Compounds were delivered in assay-ready plates (Proxiplate) and stored at −20° C.
Assays always include 1 reference compound plate containing reference compounds. The plates were spotted with 40 nL of compounds (0.5% DMSO final in cells; serial dilution; 30 μM highest conc. ⅓ dilution, 10 doses, duplicates). The compounds were used at room temperature and 4 μL of pre-warmed media was added to all wells except column 2 and 23. The negative control was prepared by adding 1% DMSO in media. The positive control was prepared by adding the appropriate positive control compound in final concentration of 60 μM in media. The plate was prepared by adding 4 μL negative control to column 23, 4 μL positive control to column 2 and 4 μL cell suspension to all wells in the plate. The plate with cells was then incubated at 37° C. for 2 hours. The assay signal reagent is the Caspase-Glo solution described above, and 8 μL was added to all wells. The plates were then sealed and measured after 30 minutes.
The activity of a test compound was calculated as percent change in apoptosis induction as follows:
LC=median of the Low Control values • =Central Reference in Screener • =DMSO • =0% ΠC=Median of the High Control values • =Scale Reference in Screener • =30 pM of positive control • =100% apoptosis induction
% Effect (AC50)=100−(sample−LC)/(HC−LC)*100
% Control=(sample/HC)*100
% Control min=(sample−LC)/(HC−LC)*100

`Cc1c(C(=O)O)n2c3ccc(Cl)c(c13)-c1c(nn(C)c1C)CSCc1cc(n(C)n1)CSc1cc(c3ccccc3c1)OCCC2` (single isomer, unassigned) [Compound 1, 1^5-chloro-1^3,2^1,2^5,6^1-tetramethyl-1^1H,2^1H,6^1H-10-oxa-4,8-dithia-1(4,1)-indola-2(4,3),6(3,5)-dipyrazola-9(3,1)-naphthalenacyclotridecaphane-1^2-carboxylic acid] gave an AC50 of 0.05 µM.

For `Cc1c(C(=O)O)n2c3ccc(Cl)c(c13)-c1c(nn(C)c1C)CSCc1cc(n(C)n1)CSc1cc(c3ccccc3c1)OCCC2` (single isomer, unassigned) [Compound 2, 1^5-chloro-1^3,2^1,2^5,6^1-tetramethyl-1′H,2′H,6H-10-oxa-4,8-dithia-1(4,1)-indola-2(4,3),6(3,5)-dipyrazola-9(3,1)-naphthalenacyclotridecaphane-1^2-carboxylic acid], the AC50 was 10.3 µM.
